Results from patent US9624164B2, “Phenyl carbamate compounds for use in preventing or treating epilepsy” (Bio-Pharm Solutions Co., Ltd., priority 2011, dated 2017).
Where two headings read alike, the source gives them in different places.

Key:
Type in all cases: in vivo
male ICR mice [1] = assay: scPTZ test (subcutaneous pentylenetetrazol-induced clonic seizure), intraperitoneal administration, mice; conditions: ip
Procedure: (§1) After Peak time (0.5, 1, 2 and 4 hr) from the administration, PTZ (Pentylenetetrazol) was administered subcutaneously in the concentration capable of inducing 97% intermittent convulsions (mice: 100˜110 mg/kg·bw, 100 ul/g, or rats: 90˜110 mg/kg·bw, 20 ul/g). If clonic seizure was not observed for at least 3 seconds in the PTZ administered animal, it can be considered that the test compound has anti-epilepsy activity.

mice = assay: Measurement of neurotoxicity (rotarod, Dunham and Miya); conditions: protective index
Procedure: The measurement of neurotoxicity of the test compounds was conducted by the method of Dunham and Miya [Dunham, N. W. and Miya, T. S. 1957. A note on a simple apparatus for detecting neurological deficit in rats and mice. J. Am. Pharm. Assoc. (Baltimore) 46: 208-209]. In the method, motor abilities of the test animals can be determined by observing whether the test animals can walk without falling from a rotator, thereby determining the value of neurotoxicity of each compound. […] They were pre-trained on the rotarod (Rotarod; Columbus instrument, rota-max, USA) at 6 rpm for 5 min 24 hr prior to the test. The peak time was determined by administration test material's random dose for 0.5, 1, 2, 4 hour. […] The ratio of TD50 to ED50 (TD50/ED50) is called as a protective index, and useful as a parameter for comparison of pharmaceutical efficacy and neurotoxicity.

male ICR mice [2] = assay: MES test (maximal electroshock, corneal electrodes), oral administration, mice
male SD rats [3] = assay: scPTZ test (subcutaneous pentylenetetrazol-induced clonic seizure), intraperitoneal administration, rats; conditions: ip; for ED50: Rat, read-out: Duration of scPTZ test ED50
Procedure: as §1

male SD rats [4] = assay: MES test (maximal electroshock, corneal electrodes), oral administration, rats
male ICR mice [5] = assay: scPTZ test (subcutaneous pentylenetetrazol-induced clonic seizure), intraperitoneal administration, mice; conditions: Mouse, ip, read-out: Duration of scPTZ test ED50
[6] = Mus musculus, mice, at peak time, read-out: ScPTZ test(ip) ED50

Compound: CC(OC(N)=O)C(O)c1ccccc1Cl (racemic) [Compound 3, 1-(2-chlorophenyl)-1-hydroxypropyl-2-carbamate]
- ED50 (male ICR mice [1]; [6]): 15.3 mg/kg
- PI (TD50/ED50 in MES) (mice): 12.0

Compound: CCC(OC(N)=O)C(O)c1ccccc1Cl (racemic) [Compound 8, 1-(2-chlorophenyl)-1-hydroxybutyl-2-carbamate]
- responders at 100 mg/kg (male ICR mice [2]; Mus musculus, injection amount 100 mg/kg, 4 mice, read-out: MES test(po) Protection %): 100%

Compound: CCCCC(OC(N)=O)C(O)c1ccccc1Cl (racemic) [Compound 14, 1-(2-chlorophenyl)-1-hydroxyhexyl-2-carbamate]
- responders at 200 mg/kg (male ICR mice [2]; Mus musculus, injection amount 200 mg/kg, 4 mice, read-out: MES test(po) Protection %): 100%

Compound: C[C@H](OC(N)=O)[C@@H](O)c1ccccc1Cl [Compound 1, 1-(2-chlorophenyl)-(S)-1-hydroxypropyl-(S)-2-carbamate]
- ED50 (male SD rats [3]; 0.5 h): 18.9 mg/kg
- ED50 (male SD rats [3]; 1 h): 14.5 mg/kg
- ED50 (male SD rats [3]; 2 h): 21 mg/kg
- ED50 (male SD rats [3]; 4 h): 31 mg/kg
- ED50 (male SD rats [3]; 8 h): 41.3 mg/kg
- ED50 (male SD rats [3]; 12 h): 76.7 mg/kg
- efficacy duration time (male SD rats [3]; scPTZ test, rats): at least 12 hours
- ED50 (male ICR mice [1]; Mouse, 0.5 h, read-out: Duration of scPTZ test ED50): 17.3 mg/kg
- ED50 (male ICR mice [1]; Mouse, 1 h, read-out: Duration of scPTZ test ED50): 16.9 mg/kg
- ED50 (male ICR mice [1]; Mouse, 2 h, read-out: Duration of scPTZ test ED50): 15.8 mg/kg
- ED50 (male ICR mice [1]; Mouse, 4 h, read-out: Duration of scPTZ test ED50): 27.4 mg/kg
- ED50 (male ICR mice [1]; [6]): 15.8 mg/kg
- efficacy duration time (male ICR mice [1]; scPTZ test, mice): at least 12 hours
- efficacy duration time (male ICR mice [2]; MES test, mice): at least 12 hours
- efficacy duration time (male SD rats [4]): at least 12 hours
- ED50 (male ICR mice [5]; 6 h): 52.2 mg/kg
- ED50 (male ICR mice [5]; 8 h): 80.7 mg/kg
- ED50 (male ICR mice [5]; 12 h): 201 mg/kg
- PI (TD50/ED50 in MES) (mice): 16.8

Compound: C[C@@H](OC(N)=O)[C@H](O)c1ccccc1Cl [Compound 2, 1-(2-chlorophenyl)-(R)-1-hydroxypropyl-(R)-2-carbamate]
- ED50 (male ICR mice [1]; [6]): 38.8 mg/kg
- PI (TD50/ED50 in MES) (mice): 7.3

Compound: C[C@H](OC(N)=O)[C@H](O)c1ccccc1Cl [Compound 5, 1-(2-chlorophenyl)-(R)-1-hydroxypropyl-(S)-2-carbamate]
- ED50 (male ICR mice [1]; [6]): 15 mg/kg
- PI (TD50/ED50 in MES) (mice): 3.3

Compound: CC[C@H](OC(N)=O)[C@@H](O)c1ccccc1Cl [Compound 6, 1-(2-chlorophenyl)-(S)-1-hydroxybutyl-(S)-2-carbamate]
- ED50 (male ICR mice [1]; [6]): 17.9 mg/kg

Compound: C[C@H](OC(N)=O)[C@@H](O)c1c(Cl)cccc1Cl [Compound 37, 1-(2,6-dichlorophenyl)-(S)-1-hydroxypropyl-(S)-2-carbamate]
- ED50 (male ICR mice [1]; [6]): 25.7 mg/kg
- PI (TD50/ED50 in MES) (mice): 5.1

Compound: CC[C@H](OC(N)=O)[C@@H](O)c1ccc(Cl)cc1Cl [Compound 39, 1-(2,4-dichlorophenyl)-(S)-1-hydroxybutyl-(S)-2-carbamate]
- ED50 (male ICR mice [1]; [6]): 24.3 mg/kg

Compound: C[C@H](OC(N)=O)[C@@H](O)c1ccccc1F [Compound 63, 1-(2-fluorophenyl)-(S)-1-hydroxypropyl-(S)-2-carbamate]
- responders at 50 mg/kg (male ICR mice [2]; Mus musculus, injection amount 50 mg/kg, 4 mice, read-out: MES test(po) Protection %): 100%
